# Laboratory results from publication PMC4222488, “Lipid droplet binding thalidomide analogs activate endoplasmic reticulum stress and suppress hepatocellular carcinoma in a chemically induced transgenic mouse model” (Lipids in Health and Disease, 2013).
# Experiments:
# [1] = tested on: HepG2; assay: MTS cytotoxicity assay (CellTiter 96 AQueous); type: cell-based; conditions: Homo sapiens, 48 h exposure
# Description: (§1) Hep3B and HepG2 cells were grown in mixture of Dulbecco’s Modified Eagle Medium (D-MEM) (high glucose) (Gibco BRL, Carlsbad, CA, USA) and Nutrient Mixture F-12 Ham (Sigma, St. Louis, MO, USA) containing penicillin (50 IU/ml)–streptomycin ([…]) and 10% fetal bovine serum. For cytotoxicity assays, cells were seeded at a density of 10.000 cells per well into 96-well cell culture plates and maintained in a humidified atmosphere of 95% air and 5% CO2 for 12 h, then treated with different concentrations of Ac-2010 or Ac-915. MTS (3-(4,5-dimethylthiazol-2-yl)-5-(3-carboxymethoxy-phenyl)-2-(4-sulfophenyl)-2H-tetrazolium) assay was applied to drug treated and control (0.2% DMSO) cells with CellTiter 96® AQueous Assay (Promega, Madison, WI) according to the manufacturer’s protocol.
# (§2) Their cytotoxic effects on human hepatocellular carcinoma cell lines (namely: HepG2, Hep3B and Huh7) were measured by using the MTS assay. […] Both Ac-915 and Ac-2010 induced cell death of liver cancer cells at sub- or low micromolar ranges.
# [2] = tested on: Hep3B; assay: MTS cytotoxicity assay (CellTiter 96 AQueous); type: cell-based; conditions: Homo sapiens, 48 h exposure
# Description: as §1, §2
# [3] = tested on: Huh7; assay: MTS cytotoxicity assay (CellTiter 96 AQueous); type: cell-based; conditions: Homo sapiens, Huh-7, 48 h exposure
# Description: as §1, §2
# [4] = tested on: Hep3B; assay: Glutathione measurement (GSH-Glo); type: cell-based, human; conditions: treated Hep3B cells
# Description: HepG2 cells (20000 cells per well in a 96-well plate) were incubated with Ac-915 in 50 μl PBS for 2 hours in a humidified atmosphere of 95% air and 5% CO2. 50 μl aliquots of prepared 2X GSH-GloTM Reagent (GSH-GloTM Glutathione assay; Promega, Madison, WI) were added to the wells and incubation continued at room temperature for 30 minutes. 100 μl of reconstituted Luciferin Detection Reagent (Promega) was added to each well and cells were incubated for 15 minutes further. Negative controls and blank reactions were also prepared. The amount of light produced was detected by luminometer.
# Toxic compounds and numerous anticancer agents interfere with chaperone and ER functions leading to cellular stress which is manifested by elevated reactive oxygen species (ROS) and dramatic decrease in the anti-oxidant, glutathione (GSH) level. To investigate whether Ac-915 and Ac-2010 exert a pro-oxidative effect as determined earlier for other amino-trifluoro-phthalimides and “redox-reactive” thalidomide analogs, we measured the presence of ROS in human hepatocellular carcinoma cells (Hep3B) Figure 4a. To reveal the correlation of depletion of glutathione and ROS production of the analogs we determined the intracellular concentrations of glutathione. To determine whether Ac-915 and Ac-2010 affect intracellular GSH levels Hep3B cells were treated with compounds and GSH levels were recorded.
# [5] = molecular target: T1, PDI (Homo sapiens, UniProt P07237); assay: Resonant waveguide optical biosensor binding assay; design: purchased Sino Biological Inc., Beijing, China; conditions: immobilized human recombinant protein, curve fitting
# Description: (§3) Protein immobilization was accomplished by applying 10 μL of 50 μg/mL human PDI (Sino Biological Inc., Beijing, China) or 50 μg/mL human HSP70 (Sino Biological) or 100 μg/mL human HSP90 (Sino Biological) in 20 mM sodium acetate pH 5.5 into a preactivated 384-well biochemical plate (Perkin Elmer) and incubating overnight at 4°C. The microplates were subsequently washed three times with assay buffer (PBS, pH 7.4/0.005% Tween 20/3% DMSO) and, after 25 minutes thermal equilibration, a baseline reading was taken in the Enspire Multimode Plate Reader (Perkin Elmer). Finally, 15 μL assay buffer was added including different concentrations of Ac-915 or Ac-2010. The Enspire response is measured as a shift in reflected wavelength and is expressed in picometers (pm). The affinity (KD) was calculated using a curve fitting method.
# Direct biomolecular interactions were determined between human recombinant and purified HSP70, HSP90, PDI proteins and Ac-915 and Ac-2010 with resonant waveguide optical biosensor technology in a biochemical binding assay. The technology is based on a microplate with resonant waveguide optical biosensors integrated into each well and a high throughput screening-compatible optical reader (Enspire system, Perkin Elmer). The biochemical interaction between the small molecule and the protein was measured as a shift in reflected wavelength and is expressed in picometers (pm). […]
# [6] = molecular target: human HSP90; assay: Resonant waveguide optical biosensor binding assay; conditions: immobilized human recombinant protein, curve fitting
# Description: as §3
# (§4) Direct biomolecular interactions were determined between human recombinant and purified HSP70, HSP90, PDI proteins and Ac-915 and Ac-2010 with resonant waveguide optical biosensor technology in a biochemical binding assay. The technology is based on a microplate with resonant waveguide optical biosensors integrated into each well and a high throughput screening-compatible optical reader (Enspire system, Perkin Elmer). The biochemical interaction between the small molecule and the protein was measured as a shift in reflected wavelength and is expressed in picometers (pm). The binding of both analogs to each of the protein was specific and saturable with the dose response (data not shown).
# [7] = molecular target: T2, human HSP70 (Homo sapiens, UniProt P0DMV8); assay: Resonant waveguide optical biosensor binding assay; conditions: immobilized human recombinant protein, curve fitting
# T2 construct: purchased Sino Biological
# Description: as §3, §4
# [8] = tested on: Hep3B; assay: ROS determination (DCFDA fluorescence, FACS); type: cell-based, human
# Description: ROS generation was determined by the increase in DCFDA (2',7'-dichlorodihydrofluorescein diacetate, Sigma) fluorescence after drug stimulation. HepG2 cells were washed, resuspended in 1% bovine serum albumin in Hanks buffered saline solution (BSA-HBSS) at 10^6 cells/mL and maintained at 37°C for analysis. Cells were treated with the indicated drugs (Ac-915, Ac-2010). DCFDA was added 60 min prior to harvest, at 2 μM final concentration and intracellular ROS production was measured by using a fluorescence activated cell sorter (Beckton Dickinson) with 20,000 events/test. All the other parameters and calculations were as described before.
# Toxic compounds and numerous anticancer agents interfere with chaperone and ER functions leading to cellular stress which is manifested by elevated reactive oxygen species (ROS) and dramatic decrease in the anti-oxidant, glutathione (GSH) level. To investigate whether Ac-915 and Ac-2010 exert a pro-oxidative effect as determined earlier for other amino-trifluoro-phthalimides and “redox-reactive” thalidomide analogs, we measured the presence of ROS in human hepatocellular carcinoma cells (Hep3B) Figure 4a. To reveal the correlation of depletion of glutathione and ROS production of the analogs we determined the intracellular concentrations of glutathione. […]
# [9] = tested on: DEN-induced liver tumors; assay: DEN-induced hepatocellular carcinoma in Matn2-/- mice; type: in vivo; conditions: started 4 months after DEN, assessed 8 months after DEN
# Description: All mice were fed a commercial diet and water ad libitum and were housed in an animal facility under a 12 h light/dark cycle at constant temperature and humidity. For all of our studies, we employed male Matn2-deficient mice (Matn2^−/−) congenic in the 129/Sv genetic background.
# For studies of liver tumor development, 15-day-old mice were treated with a single dose of DEN (Sigma-Aldrich, Budapest, Hungary) dissolved in saline at a dose of 25 mg/kg body weight by i.p. injection. 4 months after DEN injection mice were treated with either Ac-915 for 3 months (n = 15) or with Ac-2010 for 1 month (n = 10). Mice were killed 8 months after DEN administration for determination of tumor occurrence (number of tumor nodules) and liver mass index (liver weight/body weight × 100). Treatments were conducted by i.p. injection of Ac-915 at a dose of 10 mg/kg body weight three times a week or Ac-2010 at a dose of 4 mg/kg body weight three times a week.
# For studies of liver tumor development, 15-day-old mice were treated with a single dose of DEN as described previously. Mice in the Ac-915 treated group (n = 15) were treated 4 months after DEN treatment for an additional 3 months. […] Mice were killed 8 months after DEN administration and the number and size of tumors and liver mass index were determined.
# Liver samples were analyzed at the same time point, 8 months after DEN administration. […]
# [10] = tested on: HepG2; assay: Real-time cytotoxicity, xCELLigence System (RT-CES); type: cell-based, human; conditions: for Cytotoxic effect in real time (cell index): HepG2, impedance monitored for 48 h
# Description: (§5) Cytotoxicity and cell migration was monitored with the real-time cell electronic sensing, xCELLigence System (RT-CES, Acea-Roche). Cytotoxicity effects of Ac-2010 and Ac-915 compounds were tested on two different hepatocellular carcinoma cell lines (HepG2 and Hep3B). The RT-CES 96-well E-plate was coated with gelatin and then washed twice with PBS. Growth media (respective to cell types) were then gently dispensed into each well of the 96-well E-plate for background readings by the RT-CES system prior to addition of cell suspension at a density of 6000 cells/well. Devices containing the cell suspension were kept at 37° in a CO2 incubator for 8 h prior to treatment with different concentrations of Ac-2010 and Ac-915. Cell growth was monitored for 48 h by measurements of electrical impedance every 5 min.
# (§6) Cytotoxic effects of Ac-915 and Ac-2010 compounds were also tested by the real-time cell electronic sensing, xCELLigence System (RT-CES) on two different hepatocellular carcinoma cell lines (Huh7, HepG2). This technology is based on proprietary microelectronic cell sensor arrays that are integrated in the bottom of the microtiter plates (96-well E-plate). When cells are cultured in a well, impedance is measured between sensor electrodes and the attached cells that act as insulators, which is converted into cell index number.
# [11] = tested on: Huh7; assay: as above; type: cell-based, human; conditions: Huh7, impedance monitored for 48 h
# Description: as §5, §6
# [12] = Tissue distribution by fluorescent confocal microscopy of native tissue sections after i.v. injection; type: in vivo; conditions: mice, i.v. 20 mg/kg
# Description: Mice were injected i.v. with Ac-915 or Ac-2010 (20 mg/kg) and after different time points tissues were dissected, washed in PBS, embedded in Tissue-Tek® O.C.T™ medium. After fast-freezing, the samples were stored at −20°C. Tissue sections (20 μm) were prepared by using a Leica CM1950 cryostat at −20°C. From each tissue (liver, brain, kidney, muscle, heart) three independent images were recorded as above. Images were analyzed with the Olympus Fluoview 1.6 Ver Viewer software.
# To determine the tissue distribution of trifluor-amino-phtalimides, compounds were administered by i.v. injection into mice, the animals were killed at different time points and different organs were dissected. Native microscope sections were prepared and analyzed under fluorescent microscope. Because our analogs have strong inherent blue fluorescence, relative tissue distribution can be determined by using fluorescent microscopy with 405 nm laser with DAPI configuration. […] The target organs of Ac-915 seemed to be the kidney and preferentially, the liver.
# [13] = molecular target: T1, PDI; assay: Protein disulfide isomerase assay (catalytic reduction of insulin, turbidity at 650 nm); type: biochemical; design: purchased Sino Biological; conditions: insulin reduction in presence of 1 mM DTT, 25°C
# Description: The assay is based on the measurement of the catalytic reduction of insulin as described by Lundstrom and Holmgren. In this assay, PDI facilitates the reduction of insulin in the presence of DTT. The reduced insulin chains aggregate, and the turbidity is monitored spectrophotometrically at 650 nm. The assay was performed in a 96-well plate format and a volume of 30 μl in the presence of 1 mM DTT, 1 μg PDI (Sino Biological), 0.14 mM bovine pancreas insulin (Sigma), and 0.2 mM EDTA in 100 mM potassium phosphate, pH 7.0. The progress of the reaction was monitored on a 96-well plate reader (Model 680 Microplate Reader, Bio-Rad Laboratories) at 650 nm for 95 minutes at 25°C. Ac-915, Ac-2010 or DMSO control was added prior to the addition of enzyme at the concentrations indicated. The nonenzymatic reduction of insulin by DTT was recorded in a control well without PDI. IC50 values of the compounds were calculated using nonlinear regression analysis.
# These values are in good correlation with the KD values determined by direct biochemical interaction measurements using waveguide optical biosensors. The activity of PDI was based on the measurement of the catalytic reduction of insulin as described by Lundstrom and Holmgren. In this assay both analogs inhibited the PDI-induced reduction of insulin in the presence of dithiothreitol. […]
# [14] = tested on: HepG2 cell migration; assay: Real-time cell migration assay, RTCA DP xCELLigence (CIM-plate 16); type: cell-based, human
# [15] = Solubility (data not shown); type: physicochemical
# [16] = Acute toxicity (data not shown); type: in vivo
# T1 sequence (P07237 18-508): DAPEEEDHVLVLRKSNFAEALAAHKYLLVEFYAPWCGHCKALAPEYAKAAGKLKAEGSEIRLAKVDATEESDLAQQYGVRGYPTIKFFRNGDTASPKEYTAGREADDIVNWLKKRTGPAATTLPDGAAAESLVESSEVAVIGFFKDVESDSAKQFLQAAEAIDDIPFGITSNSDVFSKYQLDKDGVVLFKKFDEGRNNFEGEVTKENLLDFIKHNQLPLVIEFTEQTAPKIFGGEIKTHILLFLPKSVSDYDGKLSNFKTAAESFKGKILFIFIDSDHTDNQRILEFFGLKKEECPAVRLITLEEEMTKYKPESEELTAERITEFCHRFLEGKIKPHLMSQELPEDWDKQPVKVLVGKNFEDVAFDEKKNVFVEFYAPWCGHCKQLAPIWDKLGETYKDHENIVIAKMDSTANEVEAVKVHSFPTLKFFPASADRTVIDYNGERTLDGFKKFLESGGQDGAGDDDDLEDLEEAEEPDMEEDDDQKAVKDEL
# T2 sequence (P0DMV8 whole entry): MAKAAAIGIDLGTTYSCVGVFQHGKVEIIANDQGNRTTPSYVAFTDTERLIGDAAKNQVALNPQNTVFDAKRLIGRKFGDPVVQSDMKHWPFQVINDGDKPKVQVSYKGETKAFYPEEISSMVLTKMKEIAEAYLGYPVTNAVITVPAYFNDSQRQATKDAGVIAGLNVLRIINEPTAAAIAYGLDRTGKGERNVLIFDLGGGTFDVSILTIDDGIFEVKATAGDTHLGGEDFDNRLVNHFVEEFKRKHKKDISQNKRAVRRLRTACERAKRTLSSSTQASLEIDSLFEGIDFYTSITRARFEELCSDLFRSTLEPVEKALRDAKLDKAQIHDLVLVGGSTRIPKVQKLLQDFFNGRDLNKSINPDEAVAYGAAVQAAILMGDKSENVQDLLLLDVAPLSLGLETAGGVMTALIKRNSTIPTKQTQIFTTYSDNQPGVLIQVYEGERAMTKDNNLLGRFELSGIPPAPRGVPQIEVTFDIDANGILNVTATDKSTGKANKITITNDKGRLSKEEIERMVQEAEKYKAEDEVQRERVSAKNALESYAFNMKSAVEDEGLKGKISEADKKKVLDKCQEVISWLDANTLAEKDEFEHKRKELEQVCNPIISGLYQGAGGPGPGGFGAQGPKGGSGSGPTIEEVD
SMILES,EC50 [1] [µM],EC50 [2] [µM],EC50 [3] [µM],Intracellular GSH levels [4],Kd [5] [µM],Kd [6] [µM],Kd [7] [µM],Intracellular ROS induction [8],Cytotoxic effect in real time (cell index) [10],Cytotoxic effect in real time (cell index) [11],IC50 [13] [µM],further results
"CC(C)c1cccc(C(C)C)c1N1C(=O)c2c(F)c(F)c(F)c(N[C@@H]3C=CS(=O)(=O)C3)c2C1=O [Ac-915, 2-[2,6-bis(propane-2-yl)phenyl]-4-{[(3R)-1,1-dioxo-2,3-dihydro-thiophene-3-yl]amino}-5,6,7-trifluoro-2,3-dihydro-1H-isoindole-1,3-dione]",1.21,0.76,1.66,depleted intracellular GSH levels,~10.5,11.5,14,induce intracellular reactive oxygen species,micromolar cytotoxic effects,micromolar cytotoxic effects,~15,Liver tumor development vs control mice ([9]; 10 mg/kg i.p. three times a week for 3 months): significantly less tumor development; Fluorescence in the liver [12]: strong fluorescent signals; Time of peak fluorescence in the liver [12]: 4 h; Fluorescence in the kidney ([12]; 2 and 4 h after administration): strong signals; Fluorescence in the brain ([12]; 1 h after administration): only a slight fluorescence increase; Fluorescence in the heart ([12]; 4 h after administration): minor fluorescence increase
CC(C)c1cccc(C(C)C)c1N1C(=O)c2c(F)c(F)c(F)c(NC(=O)NC(=O)CCl)c2C1=O [Ac-2010],1.05,0.54,0.94,depleted intracellular GSH levels,~6,~16,~16,induce intracellular reactive oxygen species,micromolar cytotoxic effects,micromolar cytotoxic effects,~9,"Inhibition of cell migration ([14]; 250 nM): inhibited migration; Inhibition of cell migration ([14]; higher concentration, 2 h after administration): completely inhibited cell migration; Solubility compared with Ac-915 [15]: better solubility; Liver tumor incidence, number of tumors and liver mass index vs untreated control ([9]; 4 mg/kg i.p. three times a week for 1 month, p < 0.01): less liver tumor incidence, fewer tumors and lower liver mass index; Cytotoxicity at the migration-inhibiting concentration ([10]; 250 nM, HepG2 cells): no cytotoxicity could be detected; Acute toxicity compared with Ac-915 [16]: higher acute toxicity"
